Target: T1, ΔF508-CFTR (Homo sapiens, UniProt P13569, DEL508-508)
T1 construct: Primary lung epithelial cells homozygous for the Cystic Fibrosis-causing ΔF508 mutation were differentiated for a minimum of 4 weeks; endogenous in cells; host or cells: primary lung (bronchial) epithelial cells (hBE) homozygous for ΔF508, differentiated at an air-liquid interface
Experiment: hBE equivalent current (Ieq) assay
Type: cell-based
Conditions: 24 h, relative to a CFTR amplifier at 3 uM, AUC of equivalent chloride current, primary lung epithelial cells homozygous for ΔF508; for Activity 3 μM: compound at 3 μM; for Activity 10 μM: compound at 10 μM
Experimental: ii. hBE Equivalent Current (Ieq) Assay
Primary lung epithelial cells homozygous for the Cystic Fibrosis-causing ΔF508 mutation were differentiated for a minimum of 4 weeks in an air-liquid interface on Costar 24 well HTS filter plates prior to the equivalent current (Ieq) measurements. Cells were apically mucus-washed for 30 minutes 24 h prior to treatment with compounds. The basolateral media was removed and replaced with media containing the compound of interest diluted to its final concentration from DMSO stocks. Treated cells were incubated at 37° C. and 5% CO2 for 24 hours. At the end of the treatment period, the media was changed to the Ieq experimental solution for 2 hours before the experiment and plates are maintained in a CO2-free incubator during this period. The plates containing the cells were then placed in pre-warmed heating blocks at 36° C.±0.5 for 15 minutes before measurements are taken. The transepithelial voltage (VT) and conductance (GT) were measured using a custom 24 channel current clamp (TECC-24) with 24 well electrode manifold. The Ieq assay measurements were made following additions with standardized time periods:
1. The baseline VT and GT values were measured for approximately 20 minutes.
2. Benzamil was added to block ENaC for 15 minutes.
3. Forskolin plus VX-770 were added to maximally activate ΔF508-CFTR for 27 minutes.
4. Bumetanide was added to inhibit the NaK2Cl cotransporter and shut-off secretion of chloride.
The activity data captured was the area under the curve (AUC) for the traces of the equivalent chloride current. The AUC was collected from the time of the forskolin/VX-770 addition until the inhibition by bumetanide addition. Correction in response to compound treatment was scored as the increase in the AUC for compound-treated samples over that of vehicle-treated samples.
The results are shown below in Table 1. + indicates activity <150% of a CFTR amplifier with compound at concentration shown and amplifier at 3 uM; ++ indicates activity >150% of a CFTR amplifier with compound at concentration shown and amplifier at 3 uM.

T1 sequence (P13569 with tags, fused parts or gaps DEL508-508): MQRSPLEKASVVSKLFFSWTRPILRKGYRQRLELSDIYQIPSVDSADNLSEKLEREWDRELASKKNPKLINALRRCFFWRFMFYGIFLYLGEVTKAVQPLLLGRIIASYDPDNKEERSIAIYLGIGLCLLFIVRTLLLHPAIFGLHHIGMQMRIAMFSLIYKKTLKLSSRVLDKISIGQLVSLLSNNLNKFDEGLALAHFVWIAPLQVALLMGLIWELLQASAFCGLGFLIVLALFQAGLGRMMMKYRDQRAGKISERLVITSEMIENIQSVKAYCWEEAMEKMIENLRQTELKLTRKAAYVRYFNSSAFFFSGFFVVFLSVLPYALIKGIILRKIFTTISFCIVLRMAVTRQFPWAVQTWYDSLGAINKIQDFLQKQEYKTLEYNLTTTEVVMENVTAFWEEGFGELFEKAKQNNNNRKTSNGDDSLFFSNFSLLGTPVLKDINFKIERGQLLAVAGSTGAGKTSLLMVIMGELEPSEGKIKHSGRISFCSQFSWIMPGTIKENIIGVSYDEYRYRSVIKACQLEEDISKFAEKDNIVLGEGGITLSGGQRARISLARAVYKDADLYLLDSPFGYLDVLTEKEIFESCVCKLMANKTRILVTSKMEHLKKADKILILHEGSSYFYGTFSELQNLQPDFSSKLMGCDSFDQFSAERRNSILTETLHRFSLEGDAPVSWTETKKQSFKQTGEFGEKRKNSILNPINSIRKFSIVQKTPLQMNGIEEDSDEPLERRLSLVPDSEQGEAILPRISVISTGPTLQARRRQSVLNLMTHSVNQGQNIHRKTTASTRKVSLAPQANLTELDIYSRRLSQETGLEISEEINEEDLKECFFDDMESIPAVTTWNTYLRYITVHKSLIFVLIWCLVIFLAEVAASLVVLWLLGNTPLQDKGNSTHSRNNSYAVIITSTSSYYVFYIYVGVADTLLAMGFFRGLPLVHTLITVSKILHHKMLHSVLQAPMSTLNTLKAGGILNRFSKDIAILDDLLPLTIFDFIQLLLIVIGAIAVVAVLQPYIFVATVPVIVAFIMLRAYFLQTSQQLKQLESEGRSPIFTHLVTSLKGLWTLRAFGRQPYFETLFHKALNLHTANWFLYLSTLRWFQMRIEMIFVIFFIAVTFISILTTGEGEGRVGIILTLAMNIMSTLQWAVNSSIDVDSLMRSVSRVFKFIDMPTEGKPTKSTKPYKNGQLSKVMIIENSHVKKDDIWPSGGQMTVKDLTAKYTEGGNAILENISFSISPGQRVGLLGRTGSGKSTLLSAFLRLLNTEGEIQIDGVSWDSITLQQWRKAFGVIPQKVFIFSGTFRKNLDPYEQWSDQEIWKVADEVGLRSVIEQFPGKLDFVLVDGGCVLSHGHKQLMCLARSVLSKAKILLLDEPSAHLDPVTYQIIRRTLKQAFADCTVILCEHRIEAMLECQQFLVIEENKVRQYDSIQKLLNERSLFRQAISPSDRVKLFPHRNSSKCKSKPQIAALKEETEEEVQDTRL

## COc1cccc(-c2ccc(=O)n(C(C)C(=O)Nc3ccc4cc[nH]c4c3)n2)c1 (centres unmarked) [Compound 2, N-(1H-Indol-6-yl)-2-[3-(3-methoxyphenyl)-6-oxo-1,6-dihydropyridazin-1-yl]propanamide]
  Activity 3 μM: + (activity <150% of a CFTR amplifier with compound at concentration shown and amplifier at 3 uM)
  Activity 10 μM: + (activity <150% of a CFTR amplifier with compound at concentration shown and amplifier at 3 uM)

## COc1cccc(-c2ccc(=O)n(C(C)C(=O)Nc3ccc4[nH]ccc4c3)n2)c1 (centres unmarked) [Compound 3, N-(1H-Indol-5-yl)-2-(3-(3-methoxyphenyl)-6-oxopyridazin-1(6H)-yl)propanamide]
  Activity 3 μM: + (activity <150% of a CFTR amplifier with compound at concentration shown and amplifier at 3 uM)
  Activity 10 μM: + (activity <150% of a CFTR amplifier with compound at concentration shown and amplifier at 3 uM)

## COc1cccc(-c2ccc(=O)n(C(C)C(=O)NC3CCCCC3)n2)c1 (centres unmarked) [Compound 4, N-Cyclohexyl-2-(3-(3-methoxyphenyl)-6-oxopyridazin-1(6H)-yl)propanamide]
  Activity 3 μM: + (activity <150% of a CFTR amplifier with compound at concentration shown and amplifier at 3 uM)
  Activity 10 μM: + (activity <150% of a CFTR amplifier with compound at concentration shown and amplifier at 3 uM)

## COc1cccc(-c2ccc(=O)n(C(C)C(=O)Nc3ccccn3)n2)c1 (centres unmarked) [Compound 5, 2-(3-(3-Methoxyphenyl)-6-oxopyridazin-1(6H)-yl)-N-(pyridin-2-yl)propanamide]
  Activity 3 μM: + (activity <150% of a CFTR amplifier with compound at concentration shown and amplifier at 3 uM)
  Activity 10 μM: + (activity <150% of a CFTR amplifier with compound at concentration shown and amplifier at 3 uM)

## COc1cccc(-c2ccc(=O)n(C(C)C(=O)Nc3cccnc3)n2)c1 (centres unmarked) [Compound 6, 2-(3-(3-Methoxyphenyl)-6-oxopyridazin-1(6H)-yl)-N-(pyridin-3-yl)propanamide]
  Activity 3 μM: + (activity <150% of a CFTR amplifier with compound at concentration shown and amplifier at 3 uM)
  Activity 10 μM: + (activity <150% of a CFTR amplifier with compound at concentration shown and amplifier at 3 uM)

## CC(C(=O)Nc1cc(F)cc(F)c1)n1nc(-c2ccc3cc[nH]c3c2)ccc1=O (centres unmarked) [Compound 7, 2-(3-(1H-Indol-6-yl)-6-oxopyridazin-1(6H)-yl)-N-(3,5-difluorophenyl)propanamide]
  Activity 3 μM: + (activity <150% of a CFTR amplifier with compound at concentration shown and amplifier at 3 uM)
  Activity 10 μM: + (activity <150% of a CFTR amplifier with compound at concentration shown and amplifier at 3 uM)

## COc1cccc(-c2ccc(=O)n(C(C)C(=O)Nc3ccc(C(F)(F)F)cn3)n2)c1 (centres unmarked) [Compound 8, 2-[3-(3-Methoxyphenyl)-6-oxo-1,6-dihydropyridazin-1-yl]-N-[5-(trifluoromethyl)pyridin-2-yl]propanamide]
  Activity 3 μM: ++ (activity >150% of a CFTR amplifier with compound at concentration shown and amplifier at 3 uM)
  Activity 10 μM: ++ (activity >150% of a CFTR amplifier with compound at concentration shown and amplifier at 3 uM)

## COc1cccc(-c2ccc(=O)n(C(C)C(=O)Nc3ccc(C(F)(F)F)nc3)n2)c1 (centres unmarked) [Compound 9, 2-(3-(3-Methoxyphenyl)-6-oxopyridazin-1(6H)-yl)-N-(6-(trifluoromethyl)pyridin-3-yl)propanamide]
  Activity 3 μM: ++ (activity >150% of a CFTR amplifier with compound at concentration shown and amplifier at 3 uM)
  Activity 10 μM: + (activity <150% of a CFTR amplifier with compound at concentration shown and amplifier at 3 uM)

## COc1cccc(-c2ccc(=O)n(C(C)C(=O)Nc3cccc(C(F)(F)F)n3)n2)c1 (centres unmarked) [Compound 10, 2-(3-(3-Methoxyphenyl)-6-oxopyridazin-1(6H)-yl)-N-(6-(trifluoromethyl)pyridin-2-yl)propanamide]
  Activity 3 μM: ++ (activity >150% of a CFTR amplifier with compound at concentration shown and amplifier at 3 uM)
  Activity 10 μM: ++ (activity >150% of a CFTR amplifier with compound at concentration shown and amplifier at 3 uM)

## COc1cccc(-c2ccc(=O)n(C(C)C(=O)Nc3cc(C(F)(F)F)ccn3)n2)c1 (centres unmarked) [Compound 11, 2-(3-(3-Methoxyphenyl)-6-oxopyridazin-1(6H)-yl)-N-(4-(trifluoromethyl)pyridin-2-yl)propanamide]
  Activity 3 μM: ++ (activity >150% of a CFTR amplifier with compound at concentration shown and amplifier at 3 uM)
  Activity 10 μM: ++ (activity >150% of a CFTR amplifier with compound at concentration shown and amplifier at 3 uM)

## COc1cccc(-c2ccc(=O)n(C(C)C(=O)Nc3cncc(C(F)(F)F)c3)n2)c1 (centres unmarked) [Compound 12, 2-(3-(3-Methoxyphenyl)-6-oxopyridazin-1(6H)-yl)-N-(5-(trifluoromethyl)pyridin-3-yl)propanamide]
  Activity 3 μM: + (activity <150% of a CFTR amplifier with compound at concentration shown and amplifier at 3 uM)
  Activity 10 μM: + (activity <150% of a CFTR amplifier with compound at concentration shown and amplifier at 3 uM)

## CC(C(=O)Nc1ccc(C(F)(F)F)cc1)n1nc(-c2cccs2)ccc1=O (centres unmarked) [Compound 13, 2-[6-oxo-3-(thiophen-2-yl)-1,6-dihydropyridazin-1-yl]-N-[4-(trifluoromethyl)phenyl]propanamide]
  Activity 3 μM: ++ (activity >150% of a CFTR amplifier with compound at concentration shown and amplifier at 3 uM)
  Activity 10 μM: + (activity <150% of a CFTR amplifier with compound at concentration shown and amplifier at 3 uM)

## CC(C(=O)Nc1ccc(C(F)(F)F)cc1)n1nc(-c2ccc(Cl)s2)ccc1=O (centres unmarked) [Compound 14, 2-(3-(5-Chlorothiophen-2-yl)-6-oxopyridazin-1(6H)-yl)-N-(4-(trifluoromethyl)phenyl)propanamide]
  Activity 3 μM: ++ (activity >150% of a CFTR amplifier with compound at concentration shown and amplifier at 3 uM)
  Activity 10 μM: ++ (activity >150% of a CFTR amplifier with compound at concentration shown and amplifier at 3 uM)

## CC(C(=O)Nc1ccc(C(F)(F)F)cc1)n1nc(-c2ccsc2)ccc1=O (centres unmarked) [Compound 15, 2-(6-Oxo-3-(thiophen-3-yl)pyridazin-1(6H)-yl)-N-(4-(trifluoromethyl)phenyl)propanamide]
  Activity 3 μM: ++ (activity >150% of a CFTR amplifier with compound at concentration shown and amplifier at 3 uM)
  Activity 10 μM: + (activity <150% of a CFTR amplifier with compound at concentration shown and amplifier at 3 uM)

## CC(C(=O)Nc1ccc(C(F)(F)F)cc1)n1nc(-c2csc(Cl)c2)ccc1=O (centres unmarked) [Compound 16, 2-[3-(5-Chlorothiophen-3-yl)-6-oxo-1,6-dihydropyridazin-1-yl]-N-[4-(trifluoromethyl)phenyl]propanamide]
  Activity 3 μM: ++ (activity >150% of a CFTR amplifier with compound at concentration shown and amplifier at 3 uM)
  Activity 10 μM: ++ (activity >150% of a CFTR amplifier with compound at concentration shown and amplifier at 3 uM)

## CC(C(=O)Nc1ccc(C(F)(F)F)cn1)n1nc(-c2cccc(Cl)c2)ccc1=O (centres unmarked) [Compound 17, 2-(3-(3-Chlorophenyl)-6-oxopyridazin-1(6H)-yl)-N-(5-(trifluoromethyl)pyridin-2-yl)propanamide]
  Activity 3 μM: ++ (activity >150% of a CFTR amplifier with compound at concentration shown and amplifier at 3 uM)
  Activity 10 μM: ++ (activity >150% of a CFTR amplifier with compound at concentration shown and amplifier at 3 uM)

Reference: US20190248779A1, “COMPOUNDS, COMPOSITIONS, AND METHODS FOR INCREASING CFTR ACTIVITY” (Proteostasis Therapeutics, Inc., priority 2016, published 2019)
